From patent US20060193804A1, “Haircare use of cyclic amine derivatives” (L'OREAL, priority 2005, published 2006)

System: human striated muscle cells innervated with explants of rat embryonic spinal ganglia and spinal cord
Test: nerve/muscle coculture model: frequency of muscle fiber contractions
Format: cell-based
Conditions: for inhibition at 10 µM: Homo sapiens, concentration of 10^−5 M, contractions counted over 30 seconds after incubation for 60 seconds, read-out: inhibition of the frequency of contraction of the muscle fibers
Procedure: Compounds 1 and 2 were tested at a given concentration, on a model of nerve/muscle coculture, which makes it possible to recreate a motor arc by innervating human striated muscle cells with explants of rat embryonic spinal ganglia and spinal cord.
This test is predictive of an inhibitory effect on muscle fiber contractions.
The protocol adopted is as follows:
Human myoblasts (primary culture of human muscle cells, M1b) were inoculated in 24-well plates. The culture medium is a mixture of ⅔ MEM (Invitrogen 21090-022), ⅓ M199 (Invitrogen 31153-026) and 5% FCS. At confluence, spinal cord explants from 13-day-old rat embryos are placed on the primary culture. The first contractions of the muscle fibers are observed after one week of coculture. After three weeks, these muscle fibers are striated and have mature differentiated neuromuscular junctions.
The products are tested in triplicate (3 fibers analysed) at two concentrations. For each culture well, a muscle fiber having regular contractions (>60 contractions per minute) is selected and the number of contractions is counted over 30 seconds. The test product is then added to the culture medium under a microscope without moving the microscope stage. After incubation for 60 seconds, the number of contractions is again counted over 30 seconds. The whole experiment is recorded using a digital camera. The videos are saved on an electronic medium.

c1ccc(CCCCN2CCC(c3ccccc3)CC2)cc1 [Compound 1]
dose-response effect on contraction of the muscle fibers: induces a dose-response effect
inhibition at 10 µM: 50%

c1ccc(CCCC2CCN(CCCc3ccccc3)CC2)cc1 [Compound 2]
inhibition at 10 µM: ~55%
